From ChEMBL document CHEMBL1201862, “PubChem BioAssay data set” (2004)
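Protocol summary: plate cells (96-well), add compound at 5 concentrations, incubate 48 h, interpolate endpoints linearly. Abbreviation: GI50, concentration required for 50% inhibition of growth.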 Calls of active or inactive are those of the source. No stated cut-off is given here; in the data, active = GI50 up to about 1.1 µM and inactive = higher.

Tests used:
Test in all cases: DTP human tumour cell line panel, 48 h
[1] = tested on: BT-549
[2] = tested on: MDA-MB-435
[3] = tested on: DLD-1
[4] = tested on: DMS-114
[5] = tested on: KM-20L2
[6] = tested on: M19-MEL
[7] = tested on: SNB-78
[8] = tested on: HOP-18
[9] = tested on: RXF 631

| SMILES | GI50 [1] | GI50 [2] | GI50 [3] | GI50 [4] | GI50 [5] | further results |
| --- | --- | --- | --- | --- | --- | --- |
| O=C1C[C@@H](c2ccccc2)O[C@@H](c2ccccc2)C1 | > 100 µM (inactive) | > 100 µM (inactive) |  |  |  |  |
| CC(=O)N[C@@H](Cc1ccc(O)cn1)C(=O)NCc1ccc(Cl)cc1 | > 100 µM (inactive) | > 100 µM (inactive) |  |  |  |  |
| N=C(N)NS(=O)(=O)c1ccc(/N=N/c2c(O)c(C(=O)O)cc3ccccc23)cc1 | > 100 µM (inactive) | > 100 µM (inactive) |  |  |  |  |
| COc1ccccc1N1CCN(CCCNC(=O)c2cc(Cl)c(N)c(Cl)c2)CC1 |  | 40.2 µM (inactive) |  |  |  |  |
| CN(C)CCNC(=O)Cn1ccc(=O)c2ccc([N+](=O)[O-])cc21 |  | > 100 µM (inactive) |  |  |  |  |
| O=C1C(=O)N(c2cc(Cl)ccc2Cl)C(=O)C(=O)C1c1nc2ccccc2s1 |  |  | > 100 µM (inactive) | > 100 µM (inactive) | > 100 µM (inactive) | GI50 [6]: > 100 µM (inactive); GI50 [7]: > 100 µM (inactive) |
| O=C1c2ccccc2C(=O)c2sc(Nc3ccc(Cl)cc3)nc21 |  |  | 1.78 µM (inactive) | 1.82 µM (inactive) | 13.5 µM (inactive) | GI50 [8]: 2.24 µM (inactive); GI50 [6]: 0.388 µM (active); GI50 [7]: 3.49 µM (inactive) |
| O=C1CCCCCCCCCCC(=O)C2CCOCCOCCOCCC1Cc1cccc(n1)C2 |  |  | > 100 µM (inactive) | 77.6 µM (inactive) | > 100 µM (inactive) | GI50 [6]: > 100 µM (inactive); GI50 [9]: 80.4 µM (inactive); GI50 [7]: 79.6 µM (inactive) |
| C[n+]1c2ccccc2c(CNC(CCC(N)=O)C(=O)O)c2ccccc21 (stereo not given) | 4.59 µM (inactive) | 2.55 µM (inactive) | 0.475 µM (active) | 0.577 µM (active) | 1.1 µM (active) | GI50 [8]: 2.09 µM (inactive); GI50 [6]: 2.18 µM (inactive); GI50 [7]: 6.5 µM (inactive) |
| Cc1ccc(S(=O)(=O)/N=C2/N(C)CCCS2(=O)=O)cc1 | > 100 µM (inactive) | > 100 µM (inactive) |  |  |  |  |
| O=C1/C(=C\c2ccco2)Oc2ccccc21 | > 100 µM (inactive) | > 100 µM (inactive) |  |  |  |  |
| COc1ccc(/N=C2\C(=S)N(c3ccc(OC)cc3)/C(=N/S(=O)(=O)c3ccccc3)N2c2ccccc2)cc1 | 4.94 µM (inactive) | 7.87 µM (inactive) |  |  |  |  |
| CCN(CC)c1c(-c2c(OC(C)C)c(=O)c2=O)c(=O)n2ccsc2c1OC(C)=O | > 100 µM (inactive) | > 100 µM (inactive) |  |  |  |  |
| Cn1ccnc1CC(C)(O)c1ccccc1 (stereo not given) | > 100 µM (inactive) | > 100 µM (inactive) |  |  |  |  |
| OCCCCCNc1nc(O)c2[nH]cnc2n1 | > 100 µM (inactive) | > 100 µM (inactive) |  |  |  |  |
| Cc1cc2nc(N3C(=O)/C(=C/c4ccccc4S)N=C3c3ccccc3)sc2cc1C | 28.6 µM (inactive) | 22.1 µM (inactive) |  |  |  |  |
| COC(=O)CC1NC(=O)[C@@H]1C(C)O (stereo not given in full) |  |  | > 10 µM (inactive) | > 100 µM (inactive) | > 100 µM (inactive) | GI50 [6]: > 100 µM (inactive) |
| O=C1/C(=C/c2ccc(Br)s2)NC(=S)N1CN1CCOCC1 | 34 µM (inactive) | 56.9 µM (inactive) |  |  |  |  |
| CCN1C2=NCCN2S(=O)(=O)c2ccccc21 | > 100 µM (inactive) | > 100 µM (inactive) |  |  |  |  |
| CC(C)(C)[Si](C)(C)O/N=C\c1cccc(O[Si](C)(C)C(C)(C)C)c1 |  |  | 17.8 µM (inactive) | 18.8 µM (inactive) | 20.1 µM (inactive) | GI50 [8]: 22.5 µM (inactive); GI50 [6]: 17.8 µM (inactive); GI50 [7]: 15.7 µM (inactive) |
| CC1C(=O)OC2CC[N+]3(CC(=O)c4ccc(Br)cc4)CC=C(COC(=O)C(C)(O)C1(C)O)C23 (stereo not given) |  |  | > 375 µM (inactive) | > 375 µM (inactive) | > 37.5 µM (inactive) | GI50 [8]: > 375 µM (inactive); GI50 [6]: > 375 µM (inactive); GI50 [7]: 211 µM (inactive) |
| O=[N+]([O-])c1ccc2nc(O)c(/C=C(\O)c3ccccc3)nc2c1 | 76.7 µM (inactive) | 35.2 µM (inactive) |  |  |  |  |
| Cc1n[nH]c(N)c1C(N)=O |  |  | > 100 µM (inactive) | > 100 µM (inactive) | > 100 µM (inactive) | GI50 [8]: < 0.01 µM (active); GI50 [7]: > 100 µM (inactive) |
| C=CC(c1ccccc1)C1(O)c2cccc(O)c2C(=O)c2c(O)cccc21 (stereo not given) | 16.7 µM (inactive) | 4.01 µM (inactive) |  |  |  |  |
| S=C(S)NCC1CCC(CNC(=S)S)CC1 (stereo not given) | 44.1 µM (inactive) | 23.3 µM (inactive) |  |  |  |  |
| c1cc2c(cc1C1OCC3C(c4ccc5c(c4)OCO5)OCC13)OCO2 (stereo not given) |  |  | 65.3 µM (inactive) | 40.4 µM (inactive) | 35.8 µM (inactive) | GI50 [8]: > 100 µM (inactive); GI50 [6]: 51.2 µM (inactive); GI50 [7]: > 100 µM (inactive) |
| OC(c1ccc(Cl)cc1)(c1ccc(Cl)cc1)c1cncnc1 | 19.2 µM (inactive) | 18.3 µM (inactive) |  |  |  |  |
| CCSCC(N)C(=O)O (stereo not given) | > 100 µM (inactive) | > 100 µM (inactive) |  |  |  |  |
| COC(OC)C1OCC(n2cc(F)c(=O)[nH]c2=O)C1O (stereo not given) | > 100 µM (inactive) | > 100 µM (inactive) |  |  |  |  |
